Where “and” joins values, the source holds several entries; their conditions need not be identical. Identical values can stand only once. Entries after “also recorded” stand apart in the source; their conditions may differ.
Key:
[1] = test system: venoläre Endothelzellen; test: Hydraulic conductivity (LP) across confluent venular endothelial cell layers on porous filters (Versuchsgruppe 2 / Beispiel 12); assay type: cell-based, Meerschweinchen
From the text: Als Studienobjekt dienten bis zur Konfluenz etablierte Schichten venolärer Endothelzellen auf porösen Filtern, die in einer speziell entwickelten Apparatur zur Trennung zweier Flüssigkeitskompartimente eingesetzt wurden. So konnte z. B. der druckabhängige Wassertransport (hydraulische Konduktivität = LP mit der Dimension 10^-5 cm / s / cm H2O) über die gezüchteten Endothelschichten unter dem Einfluß von Blutzellen unter entzündlichen Bedingungen studiert werden.
Details der Versuchsanordnung gehen aus den Abb. 1 und 2 hervor. Abbildung 1 zeigt ein wiederverwendbares, autoklavierbares Filterspannsystem bestehend aus (1) dem Formteil aus Polycarbonat, (2) dem Polycarbonatfilter, (3) dem stählernen Spannring und (4) dem Haltering aus Polycarbonat. Die Darstellung rechts neben dem Stapel der Einzelteile zeigt einen Querschnitt und eine Aufsicht des zusammengefügten Systems. Abbildung 2 zeigt eine Versuchsapparatur zur Messung hydraulischer Konduktivitäten von konfluenten Zellschichten, (1) Basisteil mit Magnetrührer (1a), (2) basales Flüssigkeitskompartiment mit Stopfen (2a) bzw. Zugang für Eppendorfpipetten (2b), (3) Steigrohr, (4) oberes Flüssigkeitskompartiment, zwischen den Flüssigkeitskompartimenten (2) und (4) liegt der ausgespannte Filter, (5), (6), (7) peristaltische Pumpen, (8) Vorratsgefäß für die Konstanthaltung des hydrostatischen Niveaus im oberen Flüssigkeitskompartiment, (9) Sammelgefäß für filtriertes Volumen.
Der Nachweis der Wirkung von Verbindungen als Hemmstoffe der Kontraktilität von venolären Endothelzellen erfolgt analog zur in Versuchsgruppe 2 charakterisierten Vorgehensweise unter Verwendung der dort beschriebenen Versuchsanordnung (vgl. Abb. 1 und 2) und wird hier am Beispiel des Apigenins (chemische Formel siehe Tabelle 1) dargestellt.
Venoläre Endothelzellen werden unter Verwendung einer speziellen, nachstehend beschriebenen Technik isoliert und auf porösen Polycarbonatfiltern (Porendurchmesser 0,4 µm, Fa. Nucleopore, Pleasanton, USA) unter Verwendung ebenfalls nachstehend beschriebener Zellkulturtechniken bis zur Konfluenz kultiviert. Diese endothelbeschichteten Filter werden in einer speziellen Apparatur (siehe Abb. 1 und 2) zur Trennung zweier Flüssigkeitskompartimente eingesetzt. Als Meßgröße für die Kontraktilität der venolären Endothelzellen dient der druckabhängige Wassertransport (hydraulische Konduktivität = LP mit der Dimension 10^-5 cm / s / cm H2O) über die gezüchteten Endothelschichten, der bei Kontraktion der Endothelzellen durch Übergang von der pflastersteinartigen zur sphärischen Form (vgl. Versuchsgruppe 3 mit Abb. 3 und 4) und die damit einhergehende Öffnung von Interzellularspalten zunimmt
Eine Lösung von Plasmasalzen (=physiologische Salzlösung, Zusammensetzung siehe unten) mit Zusatz von 0,1% Albumin und von aus peripherem Blut wie nachfolgend beschrieben isolierten Granulozyten (=PMN, Konzentration 10^5/ml) und Thrombozyten (10^6/ml) wird mit 1 µM FMLP und 1 U/ml Thrombin versetzt. Durch Zentrifugieren (10 min bei 1000 g) wird der Überstand gewonnen und in das obere Flüssigkeitskompartiment der Versuchsapparatur eingebracht. Dadurch erhöht sich - als Ausdruck der Kontraktion der venoiären Endothelzellen - die hydraulische Konduktivität gegenüber dem Ausgangswert (Nr. 1 in Tabelle 4) um ca. 1600 % (Nr. 10 in Tabelle 4).
Zur Dissoziation des Myokardgewebes werden zunächst mit Krebs-Henseleitlösung (KHL) nach Langendorff bei 120 mmHg 10 min perfundierte Meerschweinchenherzen 35 min lang mit einem in KHL angesetzten Proteasegemisch perfundiert (42 mg Kollagenase D + 60 mg Dispase II + 5 mg Trypsin + 58 mg Serumalbumin aus Rinderblut, gelöst in 42 ml Ca^2+-freier KHL; 1 ml/min; Kollagenase und Dispase: Boehringer, Mannheim, Trypsin: 1:250, Serva, Heidelberg). […]

[2] = test system: venolären Endothelzellen (VEC); test: Time-lapse video microscopy of venular endothelial cell layers, opening/sealing of intercellular gaps (Versuchsgruppe 3); assay type: cell-based; conditions: for Abdichtung der Interzellularspalten: in presence of activated PMN and Thrombozyten (Abb. 3), 50 µM each
Experimental: In vitro kultivierte Schichten aus venolären Endothelzellen (VEC) werden unter Einsatz von Zeitraffervideomikrokinematographie (siehe Abb. 5) mit speziell entwickelter Methodik direkt beobachtet. Die durch aktivierte Thrombozyten (Anwendung von 1 U/ml Thrombin) und aktivierte PMN (Anwendung von 1 µM FMLP) induzierte Öffnung von Endothelbarrieren (= Öffnung der Interzellularspalten der Endothelzellen) kann so im Zeitablauf dokumentiert werden. Als Beispiel dient eine Serie von Aufnahmen, die den direkten Angriff der Blutzellen dokumentiert (Abb. 3) bzw. eine analoge Serie, die mit dem Überstand der aktivierten Blutzellen durchgeführt wurde (Abb. 4).
Die durch die Blutzellen zunächst geweiteten Interzellularspalten werden durch die Wirkstoffe wieder abgedichtet.
Abbildung 5 zeigt den experimentellen Aufbau für die videomikroskopische Beobachtung zellulärer Interaktionen an Endotheloberflächen: A-Gewebekulturmikroskop, B-Spezialinkubator mit Steuereinheit C, D-Gaszylinder mit 5% CO2, E-Waschflasche, F-Videokamera, G-Kamera-Kontroll-Einheit, H-Videorecorder, I-Monitor, J-Fotoapparat.

[3] = test system: ischämische Herzschäden; conditions: oral, initial 100 mg, then 20-40 mg/d; 17187 Patienten; cited from earlier work
[4] = test system: Meerschweinchenherzen; test: Working guinea pig heart, ischaemia/reperfusion with activated PMN and platelets (Versuchsgruppe 1); set-up: species or system Meerschweinchen; conditions: for Herzleistung [% der initialen Leistung] / Interstitielles Volumen / Koronarfluß [% des Basalflusses]: flavone derivative 3*10^-5 M, individual hearts
Experimental: Pathogene Wirkung von gleichzeitig aktivierten PMN und Thrombozyten im ischämischen Herzen. Als Studienobjekt dienten arbeitende, also Volumen gegen bestimmte Drucke auswerfende Meerschweinchenherzen. […] Thrombin, FMLP ([…]-Formyl-[…]) und […] Interaktion der Blutzellen mit dem koronaren Endothel bei diesen Versuchen. Tabelle 3: ^i Als Blutzellpräparate wurden eingesetzt: a) hochreine PMN (1-2*10^5/ml), […] Vorinkubation mit 100 μM […]) bzw. […] von PMN und TASS (bzw. T) in jeweils analogen Konzentrationen. Tabelle 3 gibt die unter […] bei […] von PMN und Thrombozyten (TASS = […] Vorinkubation mit 100μM […] = nicht […].

[5] = FMLP-activated PMN alone (Nr. 4-6), 50 µM
[6] = IPA + PMN (10^5/ml) + Thrombin (1 U/ml) + 1 µM FMLP, substance 50 µM, control without substance 5,40, baseline 1,80
[7] = IPA + supernatant of thrombin-activated Thrombozyten (10^6/ml) and FMLP-activated PMN (10^5/ml), substance 50 µM, control without substance 31,2, baseline 1,80
[8] = PMN+T (platelets not preincubated with Acetylsalicylsäure)
[9] = PMN+TASS (platelets preincubated 1 h with 100 µM Acetylsalicylsäure, washed)
[10] = acute application of the flavonoid alone
[11] = flavonoid applied in combination with Acetylsalicylsäure

CC(=O)Oc1ccccc1C(=O)O [Acetylsalicylsäure, reference compound]
Effect on increase of LP [1, 5]: keinen Effekt | LP [10^-5 cm/s/cm H2O] [1, 6]: 5,78 ±0,68 10^-5 cm/s/cm H2O | LP [10^-5 cm/s/cm H2O] [1, 7]: 28,2 ± 1,7 10^-5 cm/s/cm H2O | Abdichtung der Interzellularspalten [2]: nicht zur Abdichtung der Interzellularspalten | ischämische Herzschäden [3]: signifikant | Verschlechterung der postischämischen Funktionsdaten (ΔP/Δt; interstitielles Volumen; Koronarfluß) ([4]; platelets preincubated with 100 µM Acetylsalicylsäure, no flavonoid): lediglich teilweisen Abschwächung

O=c1cc(-c2ccc(O)cc2)oc2cc(O)cc(O)c12 [Apigenin]
Effect on increase of LP [1, 5]: keine Erhöhung von LP | LP [10^-5 cm/s/cm H2O] [1, 6]: 1,75 ± 0,06 10^-5 cm/s/cm H2O | LP [10^-5 cm/s/cm H2O] ([1]; IPA + PMN (10^5/ml) + Thrombozyten (10^6/ml) + Thrombin (1 U/ml) + 1 µM FMLP, each substance 50 µM, control without substance 33,7, baseline 1,80): 25,5 ± 4,1 10^-5 cm/s/cm H2O | LP [10^-5 cm/s/cm H2O] [1, 7]: 1,90 ± 0,07 10^-5 cm/s/cm H2O | Effect on increase of LP ([1]; simultaneously activated Thrombozyten and PMN (Nr. 7-9), 50 µM each): hemmt diesen Effekt nur schwach | Kontraktion der venolären Endothelzellen (hydraulische Konduktivität) ([1]; supernatant of activated PMN and Thrombozyten (Nr. 10, 11), 50 µM): fast vollständig gehemmt | Herzleistung [% der initialen Leistung] [4, 8]: 52 % der initialen Leistung and 67 % der initialen Leistung and 74 % der initialen Leistung and 73 % der initialen Leistung and 64 % der initialen Leistung and 71 % der initialen Leistung | Interstitielles Volumen [4, 8]: 142 µL/g and 201 µL/g and 177 µL/g and 166 µL/g and 130 µL/g | Koronarfluß [% des Basalflusses] [4, 8]: 56 % des Basalflusses (2×) and 49 % des Basalflusses and 53 % des Basalflusses and 59 % des Basalflusses and 65 % des Basalflusses | Herzleistung [% der initialen Leistung] [4, 9]: 94 % der initialen Leistung and 96 % der initialen Leistung and 89 % der initialen Leistung and 88 % der initialen Leistung and 97 % der initialen Leistung | Interstitielles Volumen [4, 9]: 95 µL/g and 120 µL/g and 105 µL/g and 102 µL/g and 97 µL/g and 91 µL/g | Koronarfluß [% des Basalflusses] [4, 9]: 102 % des Basalflusses and 107 % des Basalflusses and 98 % des Basalflusses and 95 % des Basalflusses and 91 % des Basalflusses and 109 % des Basalflusses | Verschlechterung der postischämischen Funktionsdaten (ΔP/Δt; interstitielles Volumen; Koronarfluß) [4, 10]: abgeschwächt | Verschlechterung der postischämischen Funktionsdaten (ΔP/Δt; interstitielles Volumen; Koronarfluß) [4, 11]: vollständig aufgehoben

C[C@@H]1O[C@@H](OC[C@H]2O[C@@H](Oc3c(-c4ccc(OCCO)c(OCCO)c4)oc4cc(OCCO)cc(O)c4c3=O)[C@H](O)[C@@H](O)[C@@H]2O)[C@H](O)[C@H](O)[C@H]1O [Trihydroxyethylrutosid]
Abdichtung der Interzellularspalten [2]: nicht zur Abdichtung der Interzellularspalten | Abdichtung der Spalten / Reparatur der Endothelschicht ([2]; supernatant of activated PMN and Thrombozyten, blood cells absent (Abb. 4), without Acetylsalicylsäure): fast vollständige Reparatur der Endothelschicht; also recorded: Endothel-reparativen Effekt

Catechin [reference compound]
Herzleistung [% der initialen Leistung] [4, 8]: 36 % der initialen Leistung and 39 % der initialen Leistung and 31 % der initialen Leistung and 26 % der initialen Leistung and 18 % der initialen Leistung | Interstitielles Volumen [4, 8]: 351 µL/g and 310 µL/g and 311 µL/g and 317 µL/g and 370 µL/g | Koronarfluß [% des Basalflusses] [4, 8]: 37 % des Basalflusses and 27 % des Basalflusses and 34 % des Basalflusses and 17 % des Basalflusses and 14 % des Basalflusses and 28 % des Basalflusses | Herzleistung [% der initialen Leistung] [4, 9]: 75 % der initialen Leistung and 68 % der initialen Leistung and 67 % der initialen Leistung and 81 % der initialen Leistung (2×) and 77 % der initialen Leistung | Interstitielles Volumen [4, 9]: 145 µL/g and 157 µL/g and 163 µL/g and 148 µL/g and 166 µL/g | Koronarfluß [% des Basalflusses] [4, 9]: 88 % des Basalflusses and 78 % des Basalflusses and 82 % des Basalflusses and 79 % des Basalflusses and 85 % des Basalflusses | protektive Wirkung ([4]; ischaemic heart, Versuchsgruppe 1): keine protektive Wirkung

Dihydroxyethylrutosid
Herzleistung [% der initialen Leistung] [4, 8]: 49 % der initialen Leistung and 58 % der initialen Leistung and 65 % der initialen Leistung and 72 % der initialen Leistung and 78 % der initialen Leistung and 74 % der initialen Leistung | Interstitielles Volumen [4, 8]: 144 µL/g and 186 µL/g and 151 µL/g and 157 µL/g and 165 µL/g | Koronarfluß [% des Basalflusses] [4, 8]: 49 % des Basalflusses and 51 % des Basalflusses and 39 % des Basalflusses and 47 % des Basalflusses and 64 % des Basalflusses and 69 % des Basalflusses | Herzleistung [% der initialen Leistung] [4, 9]: 93 % der initialen Leistung and 94 % der initialen Leistung and 86 % der initialen Leistung and 84 % der initialen Leistung and 89 % der initialen Leistung | Interstitielles Volumen [4, 9]: 98 µL/g and 104 µL/g and 95 µL/g and 115 µL/g and 107 µL/g and 109 µL/g | Koronarfluß [% des Basalflusses] [4, 9]: 102 % des Basalflusses and 107 % des Basalflusses and 98 % des Basalflusses and 93 % des Basalflusses and 95 % des Basalflusses and 89 % des Basalflusses | Verschlechterung der postischämischen Funktionsdaten (ΔP/Δt; interstitielles Volumen; Koronarfluß) [4, 10]: abgeschwächt | Verschlechterung der postischämischen Funktionsdaten (ΔP/Δt; interstitielles Volumen; Koronarfluß) [4, 11]: vollständig aufgehoben

Source: patent publication EP1100539B1, “COMBINATION OF ACTIVE SUBSTANCES, ESPECIALLY FOR THE PROPHYLAXIS AND THERAPY OF ISCHAEMIC ORGANIC LESIONS AND REPERFUSION SYNDROMES” (Vascular Biotech GmbH, priority 1998, dated 2000)
